From paper PMC3877901, “Screening Mangrove Endophytic Fungi for Antimalarial Natural Products” (Marine Drugs, 2013)
Entries after “also recorded” stand apart in the source; their conditions may differ. Where two headings read alike, the source gives them in different places.

Columns and labels:
[1] = system: A549 human lung adenocarcinoma epithelial cells; test: In vitro toxicity assay: cytotoxicity against A549 cells (CellTiter 96 Aqueous One, 72 h); settings: for IC50: Homo sapiens, A549, 72 h, read-out: IC50 (nM) A549
[2] = system: Plasmodium falciparum (3D7, a drug sensitive strain); test: Malaria assay: anti-malarial activity against Plasmodium falciparum (3D7); format: cell-based
[3] = system: A549 human lung adenocarcinoma epithelial cells
[4] = Plasmodium falciparum 3D7, read-out: IC50 (nM) 3D7
[5] = Plasmodium falciparum, 3D7, read-out: IC50 (nM) 3D7

Row | Structure (SMILES) | IC50 [1] [nM] | IC50 [2, 4] [nM] | IC50 [2, 5] [nM] | further results
1 | O=C1C(O)=C([C@H]2CC[C@H](c3ccc(Cl)cc3)CC2)C(=O)c2ccccc21 [ATO, atovaquone, reference compound] | > 25000 | 0.3 | – | –
2 | CCN(CC)CCCC(C)Nc1ccnc2cc(Cl)ccc12 (centres unmarked) [CQ, chloroquine, reference compound] | > 25000 | – | 4.5 | –
3 | CC(=O)OC1C2OC2C(C)(O)C(=O)C(C)CC=CC2C(O)C(C)=C(C)C3C(Cc4ccccc4)NC(=O)C213 (centres unmarked) [Compound 1] | – | – | < 20 | –
4 | CC(=O)OC1C=CC(C)(O)C(=O)C(C)CC=CC2C(O)C(C)=C(C)C3C(Cc4ccccc4)NC(=O)C123 (centres unmarked) [Compound 2] | – | – | 136 | –
5 | CC(=O)OC1C=CC(C)(O)C(=O)C(C)CC=CC2C(O)C3(C)OC3(C)C3C(Cc4ccccc4)NC(=O)C123 (centres unmarked) [Compound 3] | – | – | < 20 | –
6 | C=C1[C@@H](C)[C@H]2[C@H](Cc3ccccc3)NC(=O)[C@]23[C@H](OC(C)=O)/C=C/[C@@](C)(O)C(=O)[C@@H](C)C/C=C/[C@H]3[C@@H]1O [Compound 4, cytochalasin D] | – | – | 25.8 | –
7 | C=C1C(C)C2C(Cc3ccccc3)NC(=O)C23C(OC(C)=O)C=CC(C)(O)CC(C)CC=CC3C1O (centres unmarked) [Compound 5] | – | – | < 20 | –
8 | C=C1C(C)C2C(Cc3ccccc3)NC(=O)C23C(O)C=CC(C)(O)CC(C)CC=CC3C1O (centres unmarked) [Compound 6] | – | < 20 | – | –
9 | CC(=O)OC1C=CC(C)(O)C(=O)C(C)CC2OC2C2C3OC3(C)C(C)C3C(Cc4ccccc4)N(C)C(=O)C132 (centres unmarked) [Compound 7] | – | – | 290 | –
10 | CC(=O)OC1C=CC(C)(O)C(=O)C(C)CC=CC2C3OC3(C)C(C)C3C(Cc4ccccc4)N(C)C(=O)C123 (centres unmarked) [Compound 8] | – | – | 26 | –
11 | C=C1C2CC3OC(=O)C=CC=CC(C(C)O)OCCC(C)=CC(=O)OCC4(CCC(C)=CC4O2)C13C (centres unmarked) [Compound 10] | < 200 | – | < 20 | –
12 | CCCc1c(Cl)c(OC)cc(OC)c1C(=O)O [Compound 11, acremonisol A] | > 38700 | 36000 | – | antimalarial activity (in words) ([2]; P. falciparum 3D7): devoid of antimalarial activity
13 | COc1ccc(C)c2c1C(=O)OC(C)C2 (centres unmarked) [Compound 12, 3,5-dimethyl-8-methoxy-3,4-dihydroisocoumarin] | > 48500 | > 48500 | – | antimalarial activity (in words) ([2]; P. falciparum 3D7): devoid of antimalarial activity
14 | CC(=O)OC[C@]12Oc3ccc(-c4ccc5c(c4O)C(=O)C4=C(O)C[C@@H](C)[C@@H](OC(C)=O)[C@@]4(CO)O5)c(O)c3C(=O)C1=C(O)C[C@@H](C)[C@H]2OC(C)=O [Compound 13, Dicerandrol B] | > 25000 | – | > 25000 | antimalarial activity (in words) [2]: failed to show either activity; cytotoxicity (in words) [3]: failed to show either activity
15 | CC(=O)OC[C@]12Oc3ccc(-c4ccc5c(c4O)C(=O)C4=C(O)C[C@@H](C)[C@@H](OC(C)=O)[C@]4(CO)O5)c(O)c3C(=O)C1=C(O)C[C@@H](C)[C@H]2OC(C)=O [Compound 14, dicerandrol D] | 7800 | – | 600 | S.I. A549/3D7 (selectivity index) [1]: 13; antimalarial activity (in words) [2]: nanomolar antimalarial activity; also recorded: strong activity against P. falciparum; also recorded: nanomolar malaria activity; cytotoxicity relative to malaria activity ([3]; human): at least 10 fold
16 | C[C@H]1CC(=O)O[C@@H]1[C@@]1(CO)CC(=O)c2c(ccc(-c3ccc(O)c4c3O[C@](CO)([C@H]3OC(=O)C[C@@H]3C)CC4=O)c2O)O1 [Compound 15, diaporthochromone A] | > 25000 | > 25000 | – | –
17 | CC1CC(=O)OC1C1(CO)CC(=O)c2c(ccc(-c3ccc4c(c3O)C(=O)CC(CO)(C3OC(=O)CC3C)O4)c2O)O1 (centres unmarked) [Compound 16, Diaporthochromone B] | > 25000 | > 25000 | – | –
18 | CCC(C)CC(C)/C=C/C=C/C(=O)O (centres unmarked) [Compound 18, (2E,4E)-6,8-Dimethyldeca-2,4-dienoic Acid] | > 25000 | > 25000 | – | antimalarial activity (in words) ([2]; P. falciparum 3D7): inactive
19 | CCCCC/C=C(/C(=O)O)C(C)C(=O)O (centres unmarked) [Compound 19, piliformic acid] | > 25000 | > 25000 | – | antimalarial activity (in words) ([2]; P. falciparum 3D7): inactive
20 | C[C@H]1[C@@H](O)O[C@@H]2O[C@@]3(C)CC[C@H]4[C@H](C)CC[C@@H]1[C@@]24OO3 [DHA, dihydroartemisinin, reference compound] | > 25000 | 0.8 | – | –
